From ChEMBL document CHEMBL1130753, “Solid phase synthesis of a biased mini tetrapeptoid-library for the discovery of monodentate ITAM mimics as ZAP-70 inhibitors” (Bioorg Med Chem Lett, 1998)
Where a SMILES comes first, the peptide text is derived from it. [ ]: non-standard residue; d: D form. The star is where a group is joined. Gly(N-Bn(4-CH2PO3H2)) = O=C(O)CNCc1ccc(CP(=O)(O)O)cc1; N(3-phenylpropyl)Gly = O=C(O)CNCCCc1ccccc1; Hexanoyl = CCCCCC(=O)*; Nleu = CC(C)CNCC(=O)O; NEtG = CCNCC(=O)O

Legend:
[1] = target: Tyrosine-protein kinase Lck (Homo sapiens) (UniProt P06239); assay: Compound was tested for its antagonistic activity at 100 uM concentration against SH2 domain of LCK protein.; type: functional
Chain of Tyrosine-protein kinase Lck (Homo sapiens) (P06239 2-509 limits assumed): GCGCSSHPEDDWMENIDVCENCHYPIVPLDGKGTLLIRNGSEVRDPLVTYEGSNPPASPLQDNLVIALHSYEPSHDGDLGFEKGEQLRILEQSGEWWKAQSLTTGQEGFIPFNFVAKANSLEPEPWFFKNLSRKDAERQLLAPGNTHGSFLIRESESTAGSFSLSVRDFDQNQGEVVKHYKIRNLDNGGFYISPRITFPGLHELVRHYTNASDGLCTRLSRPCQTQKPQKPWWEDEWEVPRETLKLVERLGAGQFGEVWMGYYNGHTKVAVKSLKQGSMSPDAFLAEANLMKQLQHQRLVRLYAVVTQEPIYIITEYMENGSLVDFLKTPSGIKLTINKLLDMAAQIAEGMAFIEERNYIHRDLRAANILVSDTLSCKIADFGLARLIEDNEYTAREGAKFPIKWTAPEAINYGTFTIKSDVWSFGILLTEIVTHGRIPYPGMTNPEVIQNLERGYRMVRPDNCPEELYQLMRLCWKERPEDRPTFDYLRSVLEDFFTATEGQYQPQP

[2] = target: Growth factor receptor-bound protein 2 (Homo sapiens) (UniProt P62993); assay: Antagonistic activity at 100 uM concentration against SH-2 domain of growth factor receptor binding protein (Grb2).
[3] = target: T1, Tyrosine-protein kinase ZAP-70 (Homo sapiens, UniProt P43403); assay: Inhibition of binding to human ZAP-70 SH2 domain
T1 sequence (P43403 whole entry): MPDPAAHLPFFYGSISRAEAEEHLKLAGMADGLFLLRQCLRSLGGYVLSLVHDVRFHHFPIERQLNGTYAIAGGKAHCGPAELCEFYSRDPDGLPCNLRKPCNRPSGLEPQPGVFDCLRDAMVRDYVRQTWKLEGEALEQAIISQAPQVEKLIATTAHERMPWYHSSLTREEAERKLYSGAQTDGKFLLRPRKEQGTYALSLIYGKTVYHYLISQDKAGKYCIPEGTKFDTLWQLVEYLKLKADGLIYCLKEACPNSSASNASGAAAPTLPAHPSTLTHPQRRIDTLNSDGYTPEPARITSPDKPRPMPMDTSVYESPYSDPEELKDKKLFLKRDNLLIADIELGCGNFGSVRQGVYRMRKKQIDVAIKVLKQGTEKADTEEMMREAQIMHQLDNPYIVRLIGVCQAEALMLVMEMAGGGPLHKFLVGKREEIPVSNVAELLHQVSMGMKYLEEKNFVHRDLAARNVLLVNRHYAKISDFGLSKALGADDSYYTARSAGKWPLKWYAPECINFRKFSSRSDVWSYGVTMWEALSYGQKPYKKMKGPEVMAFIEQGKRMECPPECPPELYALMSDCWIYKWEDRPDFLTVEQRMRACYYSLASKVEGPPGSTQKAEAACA

| Compound | inhibition [1] | inhibition [2] | IC50 [3] |
| --- | --- | --- | --- |
| CCCCCC(=O)N(CC(=O)N(CC(=O)N(CC)CC(=O)N(CC)CC(N)=O)CC(C)C)Cc1ccc(CP(=O)(O)O)cc1 (Hexanoyl-[Gly(N-Bn(4-CH2PO3H2))][Nleu][NEtG][NEtG]-NH2) | 61% | 15% | – |
| CCCCCC(=O)N(CC(=O)N(CC(=O)N(CCCc1ccccc1)CC(=O)N(CC)CC(N)=O)CC(C)C)Cc1ccc(CP(=O)(O)O)cc1 (Hexanoyl-[Gly(N-Bn(4-CH2PO3H2))][Nleu][N(3-phenylpropyl)Gly][NEtG]-NH2) | 4% | 5% | – |
| CCCCCC(=O)N(CC(=O)N(CCCc1ccccc1)CC(=O)N(CC)CC(=O)N(CC)CC(N)=O)Cc1ccc(CP(=O)(O)O)cc1 (Hexanoyl-[Gly(N-Bn(4-CH2PO3H2))][N(3-phenylpropyl)Gly][NEtG][NEtG]-NH2) | 4% | 5% | – |
| CCCCCC(=O)N(CC(=O)N(CCCc1ccccc1)CC(=O)N(CC(=O)N(CC(N)=O)CC(C)C)CC(C)C)Cc1ccc(CP(=O)(O)O)cc1 (Hexanoyl-[Gly(N-Bn(4-CH2PO3H2))][N(3-phenylpropyl)Gly][Nleu][Nleu]-NH2) | 16% | 0% | – |
| CCCCCC(=O)N(CC(=O)N(CC(=O)N(CC(=O)N(CCCc1ccccc1)CC(N)=O)CC(C)C)CC(C)C)Cc1ccc(CP(=O)(O)O)cc1 (Hexanoyl-[Gly(N-Bn(4-CH2PO3H2))][Nleu][Nleu][N(3-phenylpropyl)Gly]-NH2) | 1% | 5% | – |
| CCCCCC(=O)N(CC(=O)N(CC(=O)N(CC)CC(=O)N(CCCc1ccccc1)CC(N)=O)CC(C)C)Cc1ccc(CP(=O)(O)O)cc1 (Hexanoyl-[Gly(N-Bn(4-CH2PO3H2))][Nleu][NEtG][N(3-phenylpropyl)Gly]-NH2) | 10% | 2% | – |
| CCCCCC(=O)N(CC(=O)N(CC(=O)N(CC(=O)N(CC(N)=O)CC(C)C)CC(C)C)CC(C)C)Cc1ccc(CP(=O)(O)O)cc1 (Hexanoyl-[Gly(N-Bn(4-CH2PO3H2))][Nleu][Nleu][Nleu]-NH2) | 3% | 6% | – |
| CCCCCC(=O)N(CC(=O)N(CC)CC(=O)N(CC(=O)N(CC(N)=O)CC(C)C)CC(C)C)Cc1ccc(CP(=O)(O)O)cc1 (Hexanoyl-[Gly(N-Bn(4-CH2PO3H2))][NEtG][Nleu][Nleu]-NH2) | 6% | 8% | – |
| CCCCCC(=O)N(CC(=O)N(CC)CC(=O)N(CC)CC(=O)N(CCCc1ccccc1)CC(N)=O)Cc1ccc(CP(=O)(O)O)cc1 (Hexanoyl-[Gly(N-Bn(4-CH2PO3H2))][NEtG][NEtG][N(3-phenylpropyl)Gly]-NH2) | 1% | 4% | – |
| CCCCCC(=O)N(CC(=O)N(CC(=O)N(CC(=O)N(CC)CC(N)=O)CC(C)C)CC(C)C)Cc1ccc(CP(=O)(O)O)cc1 (Hexanoyl-[Gly(N-Bn(4-CH2PO3H2))][Nleu][Nleu][NEtG]-NH2) | 1% | 4% | – |
| CCCCCC(=O)N(CC(=O)N(CC(=O)N(CCCc1ccccc1)CC(=O)N(CC(N)=O)CC(C)C)CC(C)C)Cc1ccc(CP(=O)(O)O)cc1 (Hexanoyl-[Gly(N-Bn(4-CH2PO3H2))][Nleu][N(3-phenylpropyl)Gly][Nleu]-NH2) | 1% | 3% | – |
| CCCCCC(=O)N(CC(=O)N(CCCc1ccccc1)CC(=O)N(CCCc1ccccc1)CC(=O)N(CCCc1ccccc1)CC(N)=O)Cc1ccc(CP(=O)(O)O)cc1 (Hexanoyl-[Gly(N-Bn(4-CH2PO3H2))][N(3-phenylpropyl)Gly][N(3-phenylpropyl)Gly][N(3-phenylpropyl)Gly]-NH2) | 4% | 5% | – |
| CCCCCC(=O)N(CC(=O)N(CC(=O)N(CC)CC(=O)N(CC(N)=O)CC(C)C)CC(C)C)Cc1ccc(CP(=O)(O)O)cc1 (Hexanoyl-[Gly(N-Bn(4-CH2PO3H2))][Nleu][NEtG][Nleu]-NH2) | 9% | 30% | – |
| CCCCCC(=O)N(CC(=O)N(CC)CC(=O)N(CC(=O)N(CC)CC(N)=O)CC(C)C)Cc1ccc(CP(=O)(O)O)cc1 (Hexanoyl-[Gly(N-Bn(4-CH2PO3H2))][NEtG][Nleu][NEtG]-NH2) | 0% | 2% | – |
| CCCCCC(=O)N(CC(=O)N(CC)CC(=O)N(CC)CC(=O)N(CC(N)=O)CC(C)C)Cc1ccc(CP(=O)(O)O)cc1 (Hexanoyl-[Gly(N-Bn(4-CH2PO3H2))][NEtG][NEtG][Nleu]-NH2) | 2% | 2% | – |
| CCCCCC(=O)N(CC(=O)N(CC)CC(=O)N(CCCc1ccccc1)CC(=O)N(CC)CC(N)=O)Cc1ccc(CP(=O)(O)O)cc1 (Hexanoyl-[Gly(N-Bn(4-CH2PO3H2))][NEtG][N(3-phenylpropyl)Gly][NEtG]-NH2) | 7% | 8% | – |
| CCCCCC(=O)N(CC(=O)N(CC)CC(=O)N(CC)CC(=O)N(CC)CC(N)=O)Cc1ccc(CP(=O)(O)O)cc1 (Hexanoyl-[Gly(N-Bn(4-CH2PO3H2))][NEtG][NEtG][NEtG]-NH2) | 4% | 6% | – |

Next, values leading:

| inhibition [1] | inhibition [2] | IC50 [3] | Compound |
| --- | --- | --- | --- |
| 0% | 2% | – | CCCCCC(=O)N(CC(=O)N(CC)CC(=O)N(CCCc1ccccc1)CC(=O)N(CCCc1ccccc1)CC(N)=O)Cc1ccc(CP(=O)(O)O)cc1 (Hexanoyl-[Gly(N-Bn(4-CH2PO3H2))][NEtG][N(3-phenylpropyl)Gly][N(3-phenylpropyl)Gly]-NH2) |
| 15% | 2% | – | CCCCCC(=O)N(CC(=O)N(CC)CC(=O)N(CC(=O)N(CCCc1ccccc1)CC(N)=O)CC(C)C)Cc1ccc(CP(=O)(O)O)cc1 (Hexanoyl-[Gly(N-Bn(4-CH2PO3H2))][NEtG][Nleu][N(3-phenylpropyl)Gly]-NH2) |
| 6% | 3% | – | CCCCCC(=O)N(CC(=O)N(CCCc1ccccc1)CC(=O)N(CCCc1ccccc1)CC(=O)N(CC(N)=O)CC(C)C)Cc1ccc(CP(=O)(O)O)cc1 (Hexanoyl-[Gly(N-Bn(4-CH2PO3H2))][N(3-phenylpropyl)Gly][N(3-phenylpropyl)Gly][Nleu]-NH2) |
| 3% | 0% | – | CCCCCC(=O)N(CC(=O)N(CC(=O)N(CCCc1ccccc1)CC(=O)N(CCCc1ccccc1)CC(N)=O)CC(C)C)Cc1ccc(CP(=O)(O)O)cc1 (Hexanoyl-[Gly(N-Bn(4-CH2PO3H2))][Nleu][N(3-phenylpropyl)Gly][N(3-phenylpropyl)Gly]-NH2) |
| 32% | 32% | > 100 µM | CCCCCC(=O)N(CC(=O)N(CCCc1ccccc1)CC(=O)N(CC(=O)N(CCCc1ccccc1)CC(N)=O)CC(C)C)Cc1ccc(CP(=O)(O)O)cc1 (Hexanoyl-[Gly(N-Bn(4-CH2PO3H2))][N(3-phenylpropyl)Gly][Nleu][N(3-phenylpropyl)Gly]-NH2) |
| 4% | 4% | – | CCCCCC(=O)N(CC(=O)N(CCCc1ccccc1)CC(=O)N(CCCc1ccccc1)CC(=O)N(CC)CC(N)=O)Cc1ccc(CP(=O)(O)O)cc1 (Hexanoyl-[Gly(N-Bn(4-CH2PO3H2))][N(3-phenylpropyl)Gly][N(3-phenylpropyl)Gly][NEtG]-NH2) |
| 5% | 6% | – | CCCCCC(=O)N(CC(=O)N(CCCc1ccccc1)CC(=O)N(CC(=O)N(CC)CC(N)=O)CC(C)C)Cc1ccc(CP(=O)(O)O)cc1 (Hexanoyl-[Gly(N-Bn(4-CH2PO3H2))][N(3-phenylpropyl)Gly][Nleu][NEtG]-NH2) |
| 3% | 4% | – | CCCCCC(=O)N(CC(=O)N(CC)CC(=O)N(CCCc1ccccc1)CC(=O)N(CC(N)=O)CC(C)C)Cc1ccc(CP(=O)(O)O)cc1 (Hexanoyl-[Gly(N-Bn(4-CH2PO3H2))][NEtG][N(3-phenylpropyl)Gly][Nleu]-NH2) |
| 7% | 3% | – | CCCCCC(=O)N(CC(=O)N(CCCc1ccccc1)CC(=O)N(CC)CC(=O)N(CC(N)=O)CC(C)C)Cc1ccc(CP(=O)(O)O)cc1 (Hexanoyl-[Gly(N-Bn(4-CH2PO3H2))][N(3-phenylpropyl)Gly][NEtG][Nleu]-NH2) |
| 4% | 20% | > 100 µM | CCCCCC(=O)N(CC(=O)N(CCCc1ccccc1)CC(=O)N(CC)CC(=O)N(CCCc1ccccc1)CC(N)=O)Cc1ccc(CP(=O)(O)O)cc1 (Hexanoyl-[Gly(N-Bn(4-CH2PO3H2))][N(3-phenylpropyl)Gly][NEtG][N(3-phenylpropyl)Gly]-NH2) |
